Calls of active or inactive are those of the source. The calls are words filed in the database; no cut-off is given here.
Key:
[1] = target: Adenosine receptor A2a (Homo sapiens, UniProt P29274); test: Agonist activity at human A2A-AR expressed in FlpIn-CHO cells assessed as inhibition of forskolin-stimulated cAMP accumulation preincubated for 40 mins followed by forskolin addition measured after 30 mins by Alphascreen assay
[2] = target: T1, Adenosine receptor A1 (Homo sapiens, UniProt P30542); test: Agonist activity at human A1AR expressed in FlpIn-CHO cells assessed as inhibition of forskolin-stimulated cAMP accumulation preincubated for 10 mins followed by forskolin addition measured after 30 mins by Alphascreen assay; format: functional, cell-based
T1 sequence (P30542 whole entry): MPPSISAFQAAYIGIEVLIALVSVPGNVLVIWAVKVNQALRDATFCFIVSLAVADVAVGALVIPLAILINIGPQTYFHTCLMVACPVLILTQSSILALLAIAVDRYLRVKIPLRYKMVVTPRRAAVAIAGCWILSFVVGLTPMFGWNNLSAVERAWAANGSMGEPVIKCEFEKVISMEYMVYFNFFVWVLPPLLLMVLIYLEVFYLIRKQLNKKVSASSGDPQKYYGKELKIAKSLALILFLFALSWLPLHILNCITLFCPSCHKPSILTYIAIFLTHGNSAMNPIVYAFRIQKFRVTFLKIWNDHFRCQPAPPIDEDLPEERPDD

[3] = target: T1, Adenosine receptor A1; test: Agonist activity at human A1AR expressed in FlpIn-CHO cells assessed as intracellular calcium mobilization by Fluo-4 dye-based fluorescence assay; format: cell-based
[4] = target: T1, Adenosine receptor A1; test: Agonist activity at human A1AR expressed in FlpIn-CHO cells assessed as intracellular calcium mobilization by Fluo-4 dye-based fluorescence assay relative to control; format: cell-based
[5] = target: T1, Adenosine receptor A1; test: Agonist activity at human A1AR expressed in FlpIn-CHO cells assessed as intracellular calcium mobilization by measuring agonist transduction coefficient by Fluo-4 dye-based fluorescence assay; format: cell-based
[6] = target: T2, Adenosine receptor A2b (Homo sapiens, UniProt P29275); test: Agonist activity at human A2BAR expressed in FlpIn-CHO cells assessed as […] cAMP accumulation preincubated for 40 mins followed by forskolin addition measured after 30 mins by Alphascreen assay; format: functional, cell-based
T2 sequence (P29275 whole entry): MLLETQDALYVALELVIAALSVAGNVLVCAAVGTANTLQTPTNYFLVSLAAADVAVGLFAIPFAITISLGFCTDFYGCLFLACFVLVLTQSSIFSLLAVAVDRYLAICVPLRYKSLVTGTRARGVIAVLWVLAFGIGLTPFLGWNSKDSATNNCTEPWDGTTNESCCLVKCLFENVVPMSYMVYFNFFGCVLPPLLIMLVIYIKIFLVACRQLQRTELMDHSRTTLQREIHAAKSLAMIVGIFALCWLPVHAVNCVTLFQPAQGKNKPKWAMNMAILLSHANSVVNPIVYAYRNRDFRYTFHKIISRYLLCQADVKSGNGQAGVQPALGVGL

[7] = target: T3, Adenosine receptor A2b (Homo sapiens) (UniProt P29275); test: Agonist activity at human A2BAR expressed in FlpIn-CHO cells assessed as […] cAMP accumulation preincubated for 40 mins followed by forskolin addition measured after 30 mins by Alphascreen assay relative to control; format: functional, cell-based
T3 sequence (whole entry): T2 sequence (P29275 whole entry)

[8] = target: T4, Adenosine receptor A3 (Homo sapiens, UniProt P0DMS8); test: Agonist activity at human A3AR expressed in FlpIn-CHO cells assessed as inhibition of forskolin-stimulated cAMP accumulation preincubated for 10 mins followed by forskolin addition measured after 30 mins by Alphascreen assay
T4 sequence (P0DMS8 whole entry): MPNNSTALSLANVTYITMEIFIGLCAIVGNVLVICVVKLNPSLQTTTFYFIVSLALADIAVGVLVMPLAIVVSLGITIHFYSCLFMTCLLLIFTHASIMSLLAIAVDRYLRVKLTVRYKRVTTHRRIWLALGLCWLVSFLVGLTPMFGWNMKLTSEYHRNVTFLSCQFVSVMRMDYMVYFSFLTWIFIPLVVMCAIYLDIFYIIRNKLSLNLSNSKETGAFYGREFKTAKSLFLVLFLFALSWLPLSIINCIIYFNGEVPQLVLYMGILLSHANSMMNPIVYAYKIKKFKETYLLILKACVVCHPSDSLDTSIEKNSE

[9] = target: T5, Adenosine receptor A3 (Homo sapiens) (UniProt P0DMS8); test: Agonist activity at human A3AR expressed in FlpIn-CHO cells assessed as inhibition of forskolin-stimulated cAMP accumulation preincubated for 10 mins followed by forskolin addition measured after 30 mins by Alphascreen assay relative to control; format: functional, cell-based
T5 sequence (whole entry): T4 sequence (P0DMS8 whole entry)

[10] = target: T5, Adenosine receptor A3 (Homo sapiens); test: Agonist activity at human A3AR expressed in FlpIn-CHO cells assessed as inhibition of forskolin-stimulated cAMP accumulation up to 10 uM preincubated for 10 mins followed by forskolin addition measured after 30 mins by Alphascreen assay; format: functional, cell-based

Sequence of Adenosine receptor A2a (P29274 whole entry): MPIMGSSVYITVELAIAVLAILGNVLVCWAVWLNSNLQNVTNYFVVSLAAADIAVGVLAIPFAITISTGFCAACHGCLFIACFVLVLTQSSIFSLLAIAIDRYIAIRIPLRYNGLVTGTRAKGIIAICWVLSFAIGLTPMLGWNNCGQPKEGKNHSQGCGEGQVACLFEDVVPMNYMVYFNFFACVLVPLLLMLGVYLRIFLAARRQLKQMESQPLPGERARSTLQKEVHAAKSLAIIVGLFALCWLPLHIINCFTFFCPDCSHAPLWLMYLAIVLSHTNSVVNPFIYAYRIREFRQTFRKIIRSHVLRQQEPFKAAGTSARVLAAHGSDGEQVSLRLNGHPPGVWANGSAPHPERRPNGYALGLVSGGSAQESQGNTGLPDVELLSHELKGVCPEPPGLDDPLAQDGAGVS

| SMILES | EC50 [1] [nM] | EC50 [2] [nM] | EC50 [3] [nM] | Emax [4] [%] | log(activity) [5] | EC50 [6] [nM] | Emax [7] [%] | EC50 [8] [nM] | Emax [9] [%] | inhibition [10] |
| --- | --- | --- | --- | --- | --- | --- | --- | --- | --- | --- |
| Nc1sc(-c2ccc(C(=O)NCCCCCCNc3ncnc4c3ncn4[C@@H]3O[C@H](CO)[C@@H](O)[C@H]3O)cc2)c(-c2cccc(C(F)(F)F)c2)c1C(=O)c1ccccc1 | 2290 | – | – | – | – | – | – | – | – | – |
| Nc1sc(-c2ccc(C(=O)NCCCCCNc3ncnc4c3ncn4[C@@H]3O[C@H](CO)[C@@H](O)[C@H]3O)cc2)c(-c2cccc(C(F)(F)F)c2)c1C(=O)c1ccccc1 | 3630 | 95.5 | 74.1 | 31 | 6.11 | 63.1 | 52 | > 1000 | – | – |
| Nc1cc(-c2cccc(C(F)(F)F)c2)c(-c2ccc(C(=O)NCCCCCCNc3ncnc4c3ncn4[C@@H]3O[C@H](CO)[C@@H](O)[C@H]3O)cc2)s1 | 2690 | 38 | 110 | 42 | 6.86 | 447 | 28 | 282 | 58 | – |
| CCNC(=O)[C@H]1O[C@@H](n2cnc3c(N)ncnc32)[C@H](O)[C@@H]1O [NECA] | – | – | – | 54 | – | – | – | – | 97 | – |
| Nc1sc(-c2ccc(C(=O)NCCCCCCNc3nc(Cl)nc4c3ncn4[C@@H]3O[C@H](CO)[C@@H](O)[C@H]3O)cc2)c(-c2cccc(C(F)(F)F)c2)c1C(=O)c1ccccc1 | 145 | 224 | 135 | 20 | 6.32 | 18.6 | 39 | – | – | inactive |
| CCNC(=O)[C@H]1O[C@@H](n2cnc3c(NCCCCCCNC(=O)c4ccc(-c5sc(N)c(C(=O)c6ccccc6)c5-c5cccc(C(F)(F)F)c5)cc4)ncnc32)[C@H](O)[C@@H]1O | 56.2 | 97.7 | 56.2 | 16 | 6.33 | 75.9 | 38 | 1410 | 75 | – |
| Nc1sc(-c2ccccc2C(=O)NCCCCCCNc2ncnc3c2ncn3[C@@H]2O[C@H](CO)[C@@H](O)[C@H]2O)c(-c2cccc(C(F)(F)F)c2)c1C(=O)c1ccccc1 | – | 1290 | 1350 | 43 | 5.74 | 288 | 46 | 282 | 103 | – |
| Nc1sc(-c2cccc(C(=O)NCCCCCCNc3ncnc4c3ncn4[C@@H]3O[C@H](CO)[C@@H](O)[C@H]3O)c2)c(-c2cccc(C(F)(F)F)c2)c1C(=O)c1ccccc1 | 148 | 105 | 93.3 | 48 | 6.98 | 35.5 | 43 | 123 | 80 | – |
| Nc1nc(NCCCCCCNC(=O)c2ccc(-c3sc(N)c(C(=O)c4ccccc4)c3-c3cccc(C(F)(F)F)c3)cc2)c2ncn([C@@H]3O[C@H](CO)[C@@H](O)[C@H]3O)c2n1 | 759 | 1350 | 257 | 34 | 6.15 | 97.7 | 43 | – | – | inactive |

From ChEMBL document CHEMBL4043287, “A Structure-Activity Relationship Study of Bitopic N6-Substituted Adenosine Derivatives as Biased Adenosine A1 Receptor Agonists” (J Med Chem, 2018)
